Experimental data taken from US20230357271A1, “MACROCYCLIC COMPOUND” (Asahi Kasei Pharma Corporation, priority 2020, published 2023).

How the values were obtained:
[1] = tested on: human acute monocytic leukemia cell strain THP-1; test: LPS-stimulated TNFα production inhibition test using THP-1 cells; assay type: cell-based; details: LPS 2.5 ng/mL, TNFα by HTRF
Protocol: By the THP-1 assay, influence of a test compound on the TNFα production induced by LPS stimulation can be evaluated. The THP-1 cells (ATCC, Cat. TIB-202) were inoculated on a 96-well plate at a density of 1 × 10^5 cells/160 µL/well, a test compound was added in a volume of 20 µL, and the plate was incubated at 37° C. for 1 hour in a 5% CO2 incubator. Then, LPS in a volume of 20 µL (final concentration 2.5 ng/mL, Sigma, Cat. L2630) was added, and the plate was further incubated for 4 hours. After the incubation, the plate was centrifuged, and 100 µL of the supernatant was taken from each well, and used for evaluation of the amount of TNFα using HTRF (Cisbio, Cat. 62TNFPEB). In the measurement of the amount of TNFα, the supernatant was diluted twice with the medium, and then added to wells of a 384-well plate in a volume of 10 µL, then anti-TNFα-cryptate (5 µL), and anti-TNFα-XL665 (5 µL) were added, and the plate was left standing overnight. The fluorescence intensity ratio for the wavelengths of 620 and 665 nm (620 nm/665 nm) was measured with a microplate reader, and the amount of TNFα in the supernatant was calculated by using a calibration curve. The TNFα production suppression ratio observed with no addition of LPS was defined to be 100%, the TNFα production suppression ratio observed with no addition of the test compound was defined to be 0%, and IC50 of the test compound was calculated by using the 4-parameter logistic model of the data analysis software XLfit (ID Business Solutions Ltd.).
When the measurement was performed in multiplicate, the results are represented with average values. The values were rounded to the fourth decimal place.

human IRAK-4 = human IRAK-4 (Homo sapiens (Human), UniProt Q9NWZ3); test: Measurement of human IRAK-4 inhibitory activity (TR-FRET); assay type: biochemical; details: 1 nM IRAK-4, 0.5 µM peptide substrate, 10 µM ATP, 23° C., 30 minutes
human IRAK-4, sequence (Q9NWZ3 whole entry): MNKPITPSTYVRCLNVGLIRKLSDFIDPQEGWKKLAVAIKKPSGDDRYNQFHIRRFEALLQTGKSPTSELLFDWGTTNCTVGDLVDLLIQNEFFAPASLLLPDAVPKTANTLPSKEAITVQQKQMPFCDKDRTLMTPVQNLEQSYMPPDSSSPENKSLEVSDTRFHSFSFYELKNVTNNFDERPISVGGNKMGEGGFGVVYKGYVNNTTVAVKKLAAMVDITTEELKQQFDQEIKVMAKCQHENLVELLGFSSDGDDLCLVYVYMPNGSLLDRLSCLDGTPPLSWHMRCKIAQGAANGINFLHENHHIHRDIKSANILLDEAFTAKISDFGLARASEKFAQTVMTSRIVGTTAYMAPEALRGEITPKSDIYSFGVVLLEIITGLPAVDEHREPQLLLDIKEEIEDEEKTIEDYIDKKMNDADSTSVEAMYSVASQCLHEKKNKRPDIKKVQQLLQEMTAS
Protocol: For the measurement of the activity of the human IRAK-4 (Invitrogen, Cat. PV3362), phosphorylation of the IRAK-4 peptide substrate (biotin-KKKKRFSFKKSFKC) by the enzyme in the presence of 10 µM ATP (Sigma-Aldrich, Cat. A7699) was measured by the TR-FRET method. The enzymatic reaction was performed in a reaction buffer containing 50 mM HEPES (pH 7.2), 1 mM DTT, 0.1 mM Na3VO4, 5 mM MgCl2, 1 mM MnCl2, and 0.1% bovine serum albumin. For the measurement of the IRAK-4 inhibitory activity, a test compound was added to the reaction buffer containing 1 nM IRAK-4, 0.5 µM peptide substrate, and 10 µM ATP, and the mixture was incubated at 23° C. for 30 minutes. Then, a detection solution containing an antibody labeled with europium cryptate (0.3 µg/mL, the antibody was prepared by using the IRAK-4 peptide substrate as the antigen), streptavidin-XL665 (2 µg/mL, CisBio, Cat. 610SAXLB), 50 mM HEPES (pH 7.2), 0.1% BSA, 120 mM KF, and 66.7 mM EDTA (all the concentrations of the reagents are final concentrations) was added to terminate the reaction, and then the mixture was further incubated at 23° C. for 60 minutes. Fluorescence intensity was measured at wavelengths of 665 nm and 620 nm with a microplate reader, and the enzymatic activity was calculated as the ratio of fluorescence intensities at 665 nm and 620 nm (665 nm/620 nm).
When the measurement was performed in multiplicate, the results are represented with average values.

Structure (SMILES): COCc1ncc(-c2ccc3ncc4nc3c2OCCCNC(=O)[C@@H]2C[C@H](CCN2C)N4)cn1 [a-01-45]
- IC50 ([1]; Homo sapiens, THP-1, 4 h): 0.227 µM
- IC50 (human IRAK-4): 3.28 nM

Structure (SMILES): CN1CC[C@H]2C[C@H]1C(=O)NCC1(CCC1)COc1c(-c3cnc(CO)s3)ccc3ncc(nc13)N2 [a-01-44]
- IC50 ([1]; Homo sapiens, THP-1, 4 h): 0.21 µM
- IC50 (human IRAK-4): 2.36 nM

Structure (SMILES): CN1CC[C@H]2C[C@H]1C(=O)NCCCOc1c(-c3cnsc3)ccc3ncc(nc13)N2 [a-01-14]
- IC50 ([1]; Homo sapiens, THP-1, 4 h): 0.08 µM
- IC50 (human IRAK-4): 1.73 nM

Structure (SMILES): Cc1ncc(-c2ccc3ncc4cc3c2OCC2(CC2)COC(=O)[C@@H]2C[C@H](CCN2C)N4)cn1 [a-02-19]
- IC50 ([1]; Homo sapiens, THP-1, 4 h): 0.102 µM
- IC50 (human IRAK-4): 3.9 nM

Structure (SMILES): Cc1ncc(-c2ccc3ncc4nc3c2OCC2(CC2)CNC(=O)[C@@H]2C[C@H](CCN2C)N4)cn1 [a-01-25]
- IC50 ([1]; Homo sapiens, THP-1, 4 h): 0.141 µM
- IC50 (human IRAK-4): 4.43 nM

Structure (SMILES): CN1CC[C@H]2C[C@H]1C(=O)NCCCCCOc1c(-c3cncnc3)ccc3ncc(nc13)N2 [a-01-39]
- IC50 ([1]; Homo sapiens, THP-1, 4 h): 0.204 µM
- IC50 (human IRAK-4): 5.12 nM

Structure (SMILES): Cc1ncc(-c2ccc3ncc4cc3c2OCC(F)CNC(=O)[C@@H]2C[C@H](CCN2C(C)C)N4)cn1 (some centres unmarked) [a-02-13]
- IC50 ([1]; Homo sapiens, THP-1, 4 h): 0.048 µM
- IC50 (human IRAK-4): 1.12 nM

Structure (SMILES): Cc1ncc(-c2ccc3ncc4nc3c2OCC(F)CNC(=O)[C@@H]2C[C@H](CCN2C)N4)cn1 (some centres unmarked) [a-01-41]
- IC50 ([1]; 4 hours): 0.293 µM
- IC50 (human IRAK-4): 10 nM

Structure (SMILES): CCCOCc1ncc(-c2ccc3ncc4nc3c2OCC2(CC2)CNC(=O)[C@@H]2C[C@H](CCN2C)N4)cn1 [a-01-04]
- IC50 ([1]; Homo sapiens, THP-1, 4 h): 0.048 µM
- IC50 (human IRAK-4): 4.24 nM

Structure (SMILES): Cc1ncc(-c2ccc3ncc4cc3c2CCCCNC(=O)[C@@H]2C[C@H](CC(C)N2C)N4)cn1 (some centres unmarked) [a-02-22]
- IC50 ([1]; Homo sapiens, THP-1, 4 h): 0.324 µM

Structure (SMILES): CCCOCc1ncc(-c2ccc3ncc4nc3c2OCCC(C)CNC(=O)[C@@H]2C[C@H](CCN2C)N4)cn1 (some centres unmarked) [a-01-12]
- IC50 ([1]; Homo sapiens, THP-1, 4 h): 0.075 µM
- IC50 (human IRAK-4): 1.75 nM

Structure (SMILES): O=C1OCCCOc2c(-c3cnc(CO[C@H]4CCC[C@@H]4O)nc3)ccc3ncc(cc23)N[C@H]2CCN[C@H]1C2 [a-02-03]
- IC50 ([1]; Homo sapiens, THP-1, 4 h): 0.013 µM
- IC50 (human IRAK-4): 2.51 nM

Structure (SMILES): CN1CC[C@H]2C[C@H]1C(=O)OCCCOc1c(-c3cnc(COCC(O)C4CC4)nc3)ccc3ncc(cc13)N2 (some centres unmarked) [a-02-04]
- IC50 ([1]; Homo sapiens, THP-1, 4 h): 0.023 µM
- IC50 (human IRAK-4): 5.63 nM

Structure (SMILES): CCCOCc1ncc(-c2ccc3ncc4cc3c2OCC(F)COC(=O)[C@@H]2C[C@H](CCN2C)N4)cn1 (some centres unmarked) [a-02-14]
- IC50 ([1]; Homo sapiens, THP-1, 4 h): 0.058 µM
- IC50 (human IRAK-4): 6.46 nM

Structure (SMILES): Cc1ncc(-c2ccc3ncc4cc3c2OCC(F)CNC(=O)[C@@H]2C[C@H](CCN2C)N4)cn1 (some centres unmarked) [a-02-16]
- IC50 ([1]; Homo sapiens, THP-1, 4 h): 0.065 µM
- IC50 (human IRAK-4): 0.81 nM

Structure (SMILES): CCCOCc1ncc(-c2ccc3ncc4cc3c2OCCCOC(=O)[C@@H]2C[C@H](CCN2C)N4)cn1 [a-02-10]
- IC50 ([1]; Homo sapiens, THP-1, 4 h): 0.043 µM
- IC50 (human IRAK-4): 2.96 nM

Structure (SMILES): O=C1OCCCOc2c(-c3cnc(CO)nc3)ccc3ncc(cc23)N[C@H]2CCN[C@H]1C2 [a-02-12]
- IC50 ([1]; Homo sapiens, THP-1, 4 h): 0.047 µM
- IC50 (human IRAK-4): 0.93 nM

Structure (SMILES): CN1CC[C@H]2C[C@H]1C(=O)NCC1(CC1)COc1c(-c3cncnc3)ccc3ncc(nc13)N2 [a-01-03]
- IC50 ([1]; Homo sapiens, THP-1, 4 h): 0.045 µM
- IC50 (human IRAK-4): 2.11 nM

Structure (SMILES): Cc1ncc(-c2ccc3ncc4cc3c2OCCCOC(=O)[C@@H]2C[C@H](CCN2C)N4)cn1 [a-02-20]
- IC50 ([1]; Homo sapiens, THP-1, 4 h): 0.117 µM
- IC50 (human IRAK-4): 3.21 nM

Structure (SMILES): CN1CC[C@H]2C[C@H]1C(=O)NCCCOc1c(-c3cncnc3)ccc3ncc(nc13)N2 [a-01-09]
- IC50 ([1]; Homo sapiens, THP-1, 4 h): 0.064 µM
- IC50 (human IRAK-4): 1.28 nM

Structure (SMILES): CCCOCc1ncc(-c2ccc3ncc4nc3c2OCCC(C)NC(=O)[C@@H]2C[C@H](CCN2C)N4)cn1 (some centres unmarked) [a-01-43]
- IC50 ([1]; Homo sapiens, THP-1, 4 h): 0.237 µM

Structure (SMILES): CCCOCc1ncc(-c2ccc3ncc4cc3c2OCCCNC(=O)[C@@H]2C[C@H](CCN2C)O4)cn1 [a-02-25, (3^2S,3^4S)-3^1-Methyl-1^6-(2-(propoxymethyl)pyrimidin-5-yl)-2,9-dioxa-5-aza-1 (3,5)-qunolina-3 (4,2)-piperidinacyclononaphan-4-one]
- IC50 ([1]; Homo sapiens, THP-1, 4 h): 0.5 µM
